Assay results from patent US9895322B2, “Pharmaceutical compositions for the delivery of substantially water-insoluble drugs” (priority 2012, dated 2018).
In brackets after ≈: the same amount, converted by molar mass.

Experiments:
[1] = cited from earlier work; for water solubility: background statement
[2] = tested on: Taxol resistant cell line; assay: cytopathic effects on Taxol resistant cell line (FIG. 10, 11); assay type: cell-based; conditions: 5 microgram/ml Taxol, FIG. 11
Description: FIG. 10A. A taxol resistant cell line without treatment (in vitro) showing aggressive growth. FIG. 10B. The same cell line treated with the hybrid taxol, showing cytopathic effects.

Structure (SMILES): CC1=C(/C=C/C(C)=C/C=C/C(C)=C/C(=O)O)C(C)(C)CCC1 [All-trans-retinoic acid]
- water solubility [1]: not water-soluble

Structure (SMILES): C=C(c1ccc(C(=O)O)cc1)c1cc2c(cc1C)C(C)(C)CCC2(C)C [Bexarotene]
- solubility in DMSO ([1]; DMSO): 65 mg/mL (≈ 187 mM)
- water solubility [1]: poorly soluble in water
- solubility in water ([1]; estimated): 10 to 50 µM
- solubility in ethanol ([1]; ethanol, with warming): 10 mg/mL (≈ 28.7 mM)

Structure (SMILES): CC(=O)O[C@H]1C(=O)[C@@]2(C)[C@H]([C@H](OC(=O)c3ccccc3)[C@]3(O)C[C@H](OC(=O)[C@H](O)[C@@H](NC(=O)c4ccccc4)c4ccccc4)C(C)=C1C3(C)C)[C@]1(OC(C)=O)CO[C@@H]1C[C@@H]2O [Taxol, paclitaxel]
- cytopathic effects at very low concentration [2]: cytopathic effects are observed
- water solubility [1]: very poorly water-soluble
